Source: US20220336811A1, “CATHODE ACTIVE MATERIAL FOR SECONDARY BATTERY COMPRISING CHARGE TRANSFER COMPLEX AND METHOD FOR MANUFACTURING SAME” (SEOUL NATIONAL UNIVERSITY R&DB FOUNDATION, priority 2019, published 2022)
Converted amounts (≈) assume the structure as drawn.

Details: 3 h
Protocol: The synthesized cathode mixtures were rolled with a stainless steel (SUS) rod and cut to a size of 1.5 cm×1.5 cm to produce cathodes for secondary batteries.
The cathodes produced in Embodiment 2 were put in 4 mL of a tetraethyleneglycol dimethylether (TEGDME) solvent, and stored in a 60° C. oven for 3 hours, and then solubilities of the cathode active materials for a solvent in an electrolyte were measured through ultraviolet-visible (UV-Vis) spectroscopy by using the used solvent.

solubility | SMILES
9.087 mM (≈ 1640 µg/mL) | c1ccc2nc3ccccc3nc2c1 [compound 1, phenazine]
5.625 mM (≈ 1150 µg/mL) | N#CC(C#N)=c1ccc(=C(C#N)C#N)cc1 [compound 2, 7,7,8,8-tetracyanoquinodimethane]
